From patent US20140294967A1, “STABLE NANOCOMPOSITION COMPRISING PACLITAXEL, PROCESS FOR THE PREPARATION THEREOF, ITS USE AND PHARMACEUTICAL COMPOSITIONS CONTAINING IT” (BBS Nanotechnology Llc., priority 2013, published 2014)

Experiments:
[1] = test system: SK-OV-3 human ovary adenocarcinoma cells; assay: comparative efficacy study in SK-OV-3 s.c. xenograft SCID mouse model of ovary cancer; format: in vivo, SCID mice; conditions: 5 mg/kg
Protocol: (§1) The table above illustrates the comparative efficacy study in SK-OV-3 s.c. xenograft SCID mouse model of ovary cancer. Tumor was induced in mice by implanting SK-OV-3 human ovary adenocarcinoma cells s.c. in upper region of back of SCID mice and allowing the tumors to develop to appreciable size over 24 days (70 mm3). The comparative efficacy study of six i.v. injection (day 24, 31, 38, 44, 51 and 58) of 5% glucose, paclitaxel (PACL) 5 mg/kg, NP-PACL 5 mg/kg and NP-PACL-OCT 1.7 mg/kg) was evaluated over 72 days. In this table there are: change in tumor volume of mice on 62nd day after tumor inoculation (data represent mean %±SEM of five mice per group), change in body weight of mice on 62nd day after tumor inoculation (Data represent mean±STDEV of five mice per group) and survival proportion at the end of the experiment.

[2] = body weight of mice during the SK-OV-3 xenograft efficacy study; format: in vivo, SCID mice; conditions: 5 mg/kg, six i.v. injections; 62nd day after tumor inoculation; mean ± STDEV of five mice
Protocol: as §1

Compound: CC(=O)O[C@H]1C(=O)[C@@]2(C)[C@H]([C@H](OC(=O)c3ccccc3)[C@]3(O)C[C@H](OC(=O)[C@H](O)[C@@H](NC(=O)c4ccccc4)c4ccccc4)C(C)=C1C3(C)C)[C@]1(OC(C)=O)CO[C@@H]1C[C@@H]2O [PACL, (2α,4α,5β,7β,10β,13α)-4,10-bis(acetyloxy)-13-{[(2R,3S)-3-(benzoylamino)-2-hydroxy-3-phenylpropanoyl]oxy}-1,7-dihydroxy-9-oxo-5,20-epoxytax-11-en-2-yl benzoate]
- Change in tumor volume (control: 100%) ([1]; six i.v. injections (day 24, 31, 38, 44, 51, 58), 62nd day after tumor inoculation, mean % ± SEM of five mice): 86% ± 13%
- Survival proportion at the end of the experiment ([1]; six i.v. injections, evaluated over 72 days, five mice per group): 60%
- Change in body weight during the treatment (weight at start: 100%) [2]: 99% ± 5%
